Results as given in BindingDB's records for doi:10.1016/j.bmc.2006.12.026 (University of North Carolina At Chapel Hill, 2007).

Molecular target: T1, Nuclear receptor subfamily 1 group I member 2 (Homo sapiens, UniProt O75469)
T1 sequence (O75469 whole entry): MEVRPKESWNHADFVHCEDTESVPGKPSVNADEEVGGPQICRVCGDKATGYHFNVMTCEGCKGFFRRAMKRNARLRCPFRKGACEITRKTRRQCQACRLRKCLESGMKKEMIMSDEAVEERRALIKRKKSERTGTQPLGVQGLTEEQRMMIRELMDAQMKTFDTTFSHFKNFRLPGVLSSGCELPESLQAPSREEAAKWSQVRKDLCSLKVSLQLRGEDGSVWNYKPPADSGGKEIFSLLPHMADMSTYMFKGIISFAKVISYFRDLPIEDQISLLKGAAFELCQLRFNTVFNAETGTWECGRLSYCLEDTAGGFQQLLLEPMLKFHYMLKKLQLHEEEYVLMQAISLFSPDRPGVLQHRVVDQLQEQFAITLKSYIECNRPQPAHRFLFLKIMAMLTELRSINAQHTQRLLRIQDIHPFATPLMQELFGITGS
Assay: Competition Ligand Binding Assay and Transient Transfection Assay
Details: pH 8; 22 °C
Description: Polylysine YiO imaging beads (Amersham, GE Healthcare) were coated with histidine-tagged WT PXR LBD. Nonspecific binding sites were blocked with BSA. [N-Methyl-3H]-GW0438X was added to the blocked receptor-bead. The receptor-bead-radioligand mix was added directly to test compounds in 384-well plates. […] Nonspecific binding was determined in the presence of 10 uM GW0438. Data analysis was achieved using a three-parameter fit. The data were calculated as pIC50s. The pEC50 values were obtained from measurement of Luciferase reporter activity in CV-1 cells transfected with full-length hPXR.

EC50 [nM] | IC50 [nM] | SMILES
126 | 251 | CCC(O)(c1ccc(N(CC(F)(F)F)S(=O)(=O)c2ccccc2)cc1)C(F)(F)F (stereo not drawn) [N-[4-(1,1,1-trifluoro-2-hydroxybutan-2-yl)phenyl]-N-(2,2,2-trifluoroethyl)benzenesulfonamide]
3 |  | O=S(=O)(c1ccccc1)N(CC(F)(F)F)c1ccc(C(O)(C2CCCCC2)C(F)(F)F)cc1 (stereo not drawn) [N-[4-(1-cyclohexyl-2,2,2-trifluoro-1-hydroxyethyl)phenyl]-N-(2,2,2-trifluoroethyl)benzenesulfonamide]
